One series addresses T1, C-reactive protein (CRP) (Homo sapiens, UniProt P02741).
T1 construct: from tissue; host or cells: Human material
T1 sequence (P02741 19-224): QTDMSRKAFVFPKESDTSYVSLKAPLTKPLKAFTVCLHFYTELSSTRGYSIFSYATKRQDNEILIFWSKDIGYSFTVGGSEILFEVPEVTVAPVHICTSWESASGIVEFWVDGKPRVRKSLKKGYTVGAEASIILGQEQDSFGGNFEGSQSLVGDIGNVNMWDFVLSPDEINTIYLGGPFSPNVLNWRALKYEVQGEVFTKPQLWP
In words: Inhibition of binding of 125I radiolabelled CRP to enzyme modified low density lipoprotein immobilized in microtitre plates. Here is the method: Screening for Inhibitors of Binding of ^125I Radiolabelled CRP to Enzyme Modified Low Density Lipoprotein Immobilized in Microtitre Plates. […] However, likely critical ligands of importance in vivo in the pathogenesis of atherothrombosis, are modified forms of low density lipoprotein. […] All wells were then washed three times with 200 μl volumes of PBS before blocking by incubation for 1 h at room temperature with 100 μl per well of 0.2 m Tris pH 8.0. The wells were then washed again 3 times with 200 μl volumes of PBS and finally emptied before adding to each one 100 μl volumes of the following reagents.

In series [1] the test system is experimental acute myocardial infarction produced by coronary artery ligation. An excerpt: Induction and Measurement of Myocardial Infarction. Female Wistar rats bred at ICSM, Hammersmith campus were used at age 9-10 wk and weighed 230-280 g. […] All animals were carefully examined and were healthy before being fasted overnight prior to surgery. General anesthesia was induced with inhaled isoflurane and supplemental oxygen was provided at 1.0 liter/min. The chest was opened through the sixth intercostal space, anesthesia was discontinued but supplemental oxygen continued at 0.5 liter/min, and the pericardium was opened to allow the heart to be lifted cut of the thorax. The left anterior descending coronary artery was immediately ligated at a constant distance just below the atrium with a 5/0 silk suture, the heart was replaced and the chest closed whilst active ventilation with 100% oxygen was continued. The duration of pneumothorax was about 30 s. […] Buprenorphine 0.05 mg/kg was given immediately for post-operative analgesia and repeated 12 hourly.
Deep anesthesia was induced with isoflurane and the hearts were excised while still beating in sinus rhythm and immediately arrested in diastole by immersion in 10 ml of 30 mM KCl. They were then cleaned of any extraneous adherent tissue and weighed before being briefly chilled at −20° C. to produce sufficient rigidity to facilitate cutting into defined sections. Each heart was cut into four slices of equal thickness perpendicular to the course of the left coronary artery, starting from the apex of the heart and ending at the position of the ligature around that artery. These slices were designated A, B, C, and D starting from the apex, and each was washed with pure water and then immersed in 0.02 M phosphate buffer pH 7.4 containing 0.5 mg/ml of nitroblue tetrazolium (NBT) (Sigma) at 37° C. for 30 min. NBT stains viable but not infarcted myocardium.
After staining with NBT the slices were washed briefly in cold water before fixation in 10% buffered formalin for 48 h, and the proximal cut surface of each slice was then imaged under standard conditions with a high resolution digital camera. The captured images were coded and analyzed ‘blind’ without knowledge by the operators of the treatment received by the rat in question. Lines were drawn around the total area of the slice, the NBT negative infarct zone, and any parts of the image to be excluded from the estimation including valves, chordae tendinae, shadows and edges, and the area of the infarct was determined as a percentage of the total area. […] Statistical significance of differences between infarct sizes in different treatment groups within each experiment were sought by one way ANOVA and by Bonferroni t-tests.
In Vivo Treatments. […] Human CRP or SAP were injected i.p. at 40 mg/kg 1 h after coronary artery ligation and then at 24 h intervals until the rats were killed on day 5. The proteins were dissolved in 10 mM Tris, 140 mM NaCl, pH 8.0, also containing 2 mM CaCl2 in the case of human CRP, and the control rats received injections of the buffer alone at the same intervals.

Series [2] is described as follows: Plasma clearance and serum concentration of injected human CRP and SAP in rats.
Method: Human CRP or SAP were injected i.p. at 40 mg/kg 1 h after coronary artery ligation and then at 24 h intervals until the rats were killed on day 5. The proteins were dissolved in 10 mM Tris, 140 mM NaCl, pH 8.0, also containing 2 mM CaCl2 in the case of human CRP, and the control rats received injections of the buffer alone at the same intervals. […] Plasma clearance of human CRP was also studied in the same protocol in normal unoperated rats that had received cobra venom factor 24 h previously.
[3] abbreviates: Experiment 2, 40 mg/kg i.p. 1 h after ligation then every 24 h, day 5.
Where [4] appears, read: Experiment 2, 5 rats treated, 40 mg/kg i.p. daily.

Where two headings read alike, the source gives them in different places.

As for `O=C(O)CN(CCN(CC(=O)O)CC(=O)O)CC(=O)O` [EDTA], on C-reactive protein (CRP), the “Inhibition of CRP binding to enzyme modified LDL, in words” value is listed as “All binding was inhibited”.
Regarding `CCCCCCCCCCCCCCCCOP(=O)([O-])OCC[N+](C)(C)C` [Hexadecyl phosphocholine, hexadecyl phosphocholine], the “Percent inhibition of binding of radiolabelled CRP to immobilized enzyme modified low density lipoprotein” value (from here on “Percent inhibition”) was found to be 0 on C-reactive protein (CRP) (compound molarity 1 μM); 0 at C-reactive protein (CRP) (compound molarity 10 μM); 76 on C-reactive protein (CRP) (compound molarity 100 μM); 73 at C-reactive protein (CRP) (compound molarity 1 mM); 94 on C-reactive protein (CRP) (compound molarity 10 mM). Also, the “IC50 for inhibition of CRP binding to enzyme modified LDL” value at C-reactive protein (CRP) (stated in words) is “in the micromolar range”.
`NCCOP(=O)(O)O` [Phosphoethanolamine, phosphoethanolamine]: the “Inhibition of CRP binding to enzyme modified LDL, in words” value on C-reactive protein (CRP) was “inhibition at high concentration, but only modest effects when diluted”. Further, the “Percent inhibition” value at C-reactive protein (CRP) (compound molarity 1 μM) is recorded as 0; at C-reactive protein (CRP) (compound molarity 10 μM), 0; on C-reactive protein (CRP) (compound molarity 100 μM), 39; at C-reactive protein (CRP) (compound molarity 1 mM), 90; at C-reactive protein (CRP) (compound molarity 10 mM), 92.
With `N[C@@H](COP(=O)(O)O)C(=O)O` [Phosphoserine, phosphoserine], the “Percent inhibition” value on C-reactive protein (CRP) (compound molarity 1 μM) was determined as 0; on C-reactive protein (CRP) (compound molarity 10 μM), 0; at C-reactive protein (CRP) (compound molarity 100 μM) it was 0; at C-reactive protein (CRP) (compound molarity 1 mM), 0; at C-reactive protein (CRP) (compound molarity 10 mM), 38.
On to “Human CRP: isolated pure human C-reactive protein, a plasma pentraxin”, for which the “Infarct size mean (SD) %” value in series [1] (Experiment 1, 40 mg/kg i.p. 1 h after ligation then every 24 h, day 5) is listed as 21.2 (2.0) %; in series [1] (setting [3]) it was 17.6 (0.4) %; in series [1] (rat, in vivo), 19.7 (1.6) %. Besides, the “Day 5 survivors” value in series [1] (Experiment 1, 5 rats treated, 40 mg/kg i.p. daily) was determined as 4; in series [1] (setting [4]), 3; in series [1] (Table 3 experiment, 5 or 6 rats treated) it was 3. Moreover, in series [1] (complement sufficient rats, day 5, Table 3 experiment), the “Infarcts larger than in control untreated animals” value is listed as “approximately 40%”. Also, the Clinical condition entry in series [1] (coronary artery ligated rats, 40 mg/kg i.p.) is reported as “rapidly became clinically less well than buffer-treated controls”; in series [1] (rats not operated on, same doses), “absolutely no ill effects”. The “Infarcts larger than in control rats treated with buffer or human SAP” value in series [1] (day 5, Table 2 experiments) is “about 40%”. Moreover, the “Effect on the reduced infarct size in decomplemented rats” value in series [1] (rat, in vivo) is “no effect at all”. Moreover, in series [2] (coronary artery ligated rats killed 24 h after the last of 5 daily 40 mg/kg i.p. injections), the “Serum concentration of the injected protein” value is 13000 to 53000 ng/mL. In series [2] (single 40 mg/kg i.p., cobra venom factor 250 U/kg 24 h beforehand, unoperated rats), the “Plasma clearance in decomplemented rats” value is given as “not affected by complement depletion”.
Turning to “Human SAP: human serum amyloid P component, pentraxin closely related to CRP”, the “Infarct size mean (SD) %” value in series [1] (setting [3]) is given as 12.4 (1.9) %. The “Day 5 survivors” value in series [1] (setting [4]) was found to be 5. In addition, the Clinical condition result in series [1] (normal or coronary artery ligated rats) was “no adverse clinical effects”.

(Values after patent US7390795B2, “Treatment and prevention of tissue damage” (Pentraxin Therapeutics Limited, priority 2000, dated 2008).)
